Assay results taken from patent US4323568A, “Pharmaceutically active (omega-aminoalkoxy)bibenzyls” (Mitsubishi Chemical Industries Limited, priority 1977, dated 1982).
Counter-ions that a name gives are not always drawn.

Legend:
[1] = tested on: rabbit blood platelet aggregation; assay: inhibition of collagen-induced platelet aggregation in rabbit platelet-rich plasma (turbidometric method of Born); format: cell-based; settings: Oryctolagus cuniculus, collagen 10 to 15 μg/ml, 37° C., 3 min preincubation, read-out: I50 (concentration inhibiting platelet aggregation by 50 percent)
Protocol: Evaluation of the compounds of this invention for their activity against platelet aggregation was carried out according to a turbidometric method described by G. V. R. Born, Nature 194 927 (1962). Platelet aggregation was measured using platelet-rich plasma prepared from citrated blood which was collected from a carotid artery of male white rabbits of Japanese native kind. A suspension of collagen (bovine Achilles tendon collagen, Sigma) in saline was used to cause platelet aggregation. The aggregation of rabbit blood platelet was induced by adding the suspension of collagen to give 10 to 15 μg collagen per milliliter. At this time, the tests were conducted at 37° C. at levels of 4×10^5 platelet/mm^3. A solution of compounds of this invention in saline was added to the platelet-rich plasma. After three minutes of preincubation with the platelet-rich plasma, collagen was added to cause platelet aggregation. Percent inhibition was calculated by comparison with controls.
Using the above procedure, the compounds of this invention were compared to aspirin.
(§1) The concentration of the compound in micromoles inhibiting platelet aggregation by 50 percent (I50) and LD50 which was calculated by Litchfield-Wilcoxon method are shown in Table 1.

[2] = LD50 i.p. in mice, calculated by Litchfield-Wilcoxon method; settings: mouse, in vivo, ip, read-out: ID50 (the source's name)
Protocol: as §1

| Structure (SMILES) | IC50 [1] [µM] | LD50 [2] [mg/kg] |
| --- | --- | --- |
| CC(=O)Oc1ccccc1C(=O)O [Aspirin, aspirin, reference compound] | 25 | – |
| CN(C)CCOc1ccccc1CCc1ccccc1 [Example 1, 2-(2-dimethylaminoethoxy)bibenzyl hydrochloride] | 0.6 | 165 |
| CN(C)CCCOc1ccccc1CCc1ccccc1 [Example 2, 2-(3-dimethylaminopropoxy)bibenzyl hydrochloride] | 0.6 | – |
| CN(C)CCCCOc1ccccc1CCc1ccccc1 [Example 3, 2-(4-dimethylaminobutoxy)bibenzyl] | 0.6 | 215 |
| CN(C)CCCCCOc1ccccc1CCc1ccccc1 [Example 4, 2-(5-dimethylaminopentyloxy)bibenzyl] | 0.8 | 205 |
| CN(C)CCCCCCOc1ccccc1CCc1ccccc1 [Example 5, 2-(6-dimethylaminohexyloxy)bibenzyl] | 1 | – |
| CNCCCCOc1ccccc1CCc1ccccc1 [Example 6, 2-(4-methylaminobutoxy)bibenzyl] | 7 | – |
| CCCCN(C)CCCCOc1ccccc1CCc1ccccc1 [Example 7, 2-[4-(N-methyl-N-butylamino)butoxy]bibenzyl] | 3 | – |
| CN(CCO)CCCCOc1ccccc1CCc1ccccc1 [Example 8, 2-{4-[N-methyl-N-(2-hydroxyethyl)amino]butoxy}bibenzyl] | 2 | – |
| c1ccc(CCc2ccccc2OCCCCN2CCCCC2)cc1 [Example 9, 2-(4-piperidinobutoxy)bibenzyl] | 1 | – |
| c1ccc(CCc2ccccc2OCCCCN2CCOCC2)cc1 [Example 10, 2-(4-morpholinobutoxy)bibenzyl] | 10 | – |
| c1ccc(CCc2ccccc2OCCCCN2CCNCC2)cc1 [Example 11, 2-[4-(1-piperazinyl)butoxy]bibenzyl dihydrochloride] | 2 | – |
| c1ccc(CCc2ccccc2OCCCCN2CCCC2)cc1 [Example 12, 2-[4-(1-pyrrolidinyl)butoxy]bibenzyl] | 0.7 | – |
| OCCN1CCN(CCCCOc2ccccc2CCc2ccccc2)CC1 [Example 13, 2-{4-[4-(2-hydroxyethyl)-1-piperazinyl]butoxy}bibenzyl] | 3 | – |
| OCCN(CCO)CCCCOc1ccccc1CCc1ccccc1 [Example 14, 2-[4-bis(2-hydroxyethyl)aminobutoxy]bibenzyl] | 5 | – |
| CCN(CC)CCOc1ccccc1CCc1ccccc1 [Example 15, 2-(2-diethylaminoethoxy)bibenzyl] | 0.5 | – |
| CCN(CC)CCCOc1ccccc1CCc1ccccc1 [Example 16, 2-(3-diethylaminopropoxy)bibenzyl] | 0.5 | 187 |
| CCN(CC)CCCCOc1ccccc1CCc1ccccc1 [Example 17, 2-(4-diethylaminobutoxy)bibenzyl] | 0.8 | – |
| CCN(CC)CCCCCOc1ccccc1CCc1ccccc1 [Example 18, 2-(5-diethylaminopentyloxy)bibenzyl] | 1 | – |
| CCN(CC)CCCCCCOc1ccccc1CCc1ccccc1 [Example 19, 2-(6-diethylaminohexyloxy)bibenzyl] | 1 | – |
| CN(C)CCCOc1ccc(CCc2ccccc2)cc1 [Example 20, 4-(3-dimethylaminopropoxy)bibenzyl] | 2 | – |
| CN(C)CCCCOc1ccc(CCc2ccccc2)cc1 [Example 21, 4-(4-dimethylaminobutoxy)bibenzyl] | 2 | – |
| Cl.O=C(O)C1CCN(CCCCOc2ccccc2CCc2ccccc2)CC1 [Example 22, 2-[4-(4-carboxypiperidino)butoxy]bibenzyl hydrochloride] | 5.5 | 500 |
| NC(=O)C1CCN(CCCCOc2ccccc2CCc2ccccc2)CC1 [Example 24, 2-[4-(4-carbamoylpiperidino)butoxy]bibenzyl] | 1.5 | 500 |
| NC(=O)C1CCN(CCOc2ccccc2CCc2ccccc2)CC1 [Example 25, 2-[2-(4-carbamoylpiperidino)ethoxy]bibenzyl] | 2.5 | – |

| Structure (SMILES) | IC50 [1] [µM] | LD50 [2] [mg/kg] |
| --- | --- | --- |
| CN(C)C(=O)C1CCN(CCCCOc2ccccc2CCc2ccccc2)CC1 [Example 26, 2-[4-(4-dimethylcarbamoylpiperidino)butoxy]bibenzyl hydrochloride] | 3 | – |
| CCNC(=O)C1CCN(CCCCOc2ccccc2CCc2ccccc2)CC1 [Example 27, 2-[4-(4-ethylcarbamoylpiperidino)butoxy]bibenzyl] | 2.5 | – |
| NC(=O)C1CCCN(CCCCOc2ccccc2CCc2ccccc2)C1 (stereo not shown) [Example 29, 2-[4-(3-carbamoylpiperidino)butoxy]bibenzyl] | 1.4 | 270 |
| NC(=O)C1CCN(CCCOc2ccccc2CCc2ccccc2)CC1 [Example 30, 2-[3-(4-carbamoylpiperidino)propoxy]bibenzyl] | 2 | – |
| COc1ccccc1CCc1ccccc1OCCN(C)C [Example 31, 2-(2-dimethylaminoethoxy)-2'-methoxybibenzyl] | 0.6 | – |
| COc1ccccc1CCc1ccccc1OCCCCN(C)C [Example 32, 2-(4-dimethylaminobutoxy)-2'-methoxybibenzyl] | 0.9 | 250 |
| COc1cccc(CCc2ccccc2OCCCCN(C)C)c1 [Example 34, 2-(4-dimethylaminobutoxy)-3'-methoxybibenzyl] | 0.55 | 200 |
| COc1cccc(CCc2ccccc2OCCCCN2CCN(CCO)CC2)c1 [Example 35, 2-{4-[4-(2-hydroxyethyl)-1-piperazinyl]butoxy}-3'-methoxybibenzyl] | 1.2 | – |
| CCOc1ccccc1CCc1ccccc1OCCCCN(CC)CC [Example 37, 2-(4-diethylaminobutoxy)-2'-ethoxybibenzyl] | 1 | – |
| CN(C)CCCCOc1ccccc1CCc1ccccc1O [Example 38, 2-(4-dimethylaminobutoxy)-2'-hydroxybibenzyl] | 0.9 | 167 |
| COC(=O)c1ccccc1CCc1ccccc1OCCN(C)C [Example 41, 2-(2-dimethylaminoethoxy)-2'-methoxycarbonylbibenzyl] | 0.5 | 130 |
| CN(C)CCCOc1ccccc1CCc1ccc(Cl)cc1 [Example 44, 2-(3-dimethylaminopropoxy)-4'-chlorobibenzyl] | 0.6 | 185 |
| OCCN1CCN(CCCCOc2ccccc2CCc2ccc(Cl)cc2)CC1 [Example 45, 2-{4-[4-(2-hydroxyethyl)-1-piperazinyl]butoxy}-4'-chlorobibenzyl] | 3 | – |
| Clc1ccc(CCc2ccccc2OCCCCN2CCCC2)cc1 [Example 46, 2-[4-(1-pyrrolidinyl)butoxy]-4'-chlorobibenzyl] | 1.3 | – |
| CN(C)CCCCOc1ccccc1CCc1ccccc1Cl.Cl [Example 47, 2-(4-dimethylaminobutoxy)-2'-chlorobibenzyl hydrochloride] | 0.5 | 170 |
| CN(C)CCCCCCOc1ccccc1CCc1ccccc1Cl [Example 51, 2-(6-dimethylaminohexyloxy)-2'-chlorobibenzyl] | 0.8 | 250 |
| CN(C)CCCOc1ccccc1CCc1ccccc1Cl [Example 52, 2-(3-dimethylaminopropoxy)-2'-chlorobibenzyl] | 0.63 | – |
| CN(C)CCCOc1ccccc1CCc1ccc(Cl)c(Cl)c1.Cl [Example 54, 2-(3-dimethylaminopropoxy)-3',4'-dichlorobibenzyl hydrochloride] | 0.6 | 250 |
| CN(C)CCCCOc1ccccc1CCc1ccc(F)cc1 [Example 55, 2-(4-dimethylaminobutoxy)-4'-fluorobibenzyl] | 0.75 | 185 |
| NC(=O)C1CCN(CCCCOc2ccccc2CCc2ccc(F)cc2)CC1 [Example 56, 2-[4-(4-carbamoylpiperidino)butoxy]-4'-fluorobibenzyl] | 1.3 | 450 |
| OC1CCN(CCCCOc2ccccc2CCc2ccc(F)cc2)CC1 [Example 58, 2-[4-(4-hydroxypiperidino)butoxy]-4'-fluorobibenzyl] | 1.1 | – |
| Cc1ccccc1CCc1ccccc1OCCCCN(C)C [Example 61, 2-(4-dimethylaminobutoxy)-2'-methylbibenzyl] | 1.1 | – |
| Cc1ccccc1CCc1ccccc1OCCCCN1CCC(C(N)=O)CC1 [Example 63, 2-[4-(4-carbamoylpiperidino)butoxy]-2'-methylbibenzyl] | 2 | – |
| CN(C)CCCOc1ccccc1CCc1ccc(N(C)C)cc1 [Example 64, 2-(3-dimethylaminopropoxy)-4'-dimethylaminobibenzyl] | 0.35 | – |
| COc1cccc(CCc2ccccc2)c1OCCCCN(C)C [Example 67, 2-(4-dimethylaminobutoxy)-3-methoxybibenzyl] | 3 | – |
